Source: patent US20150080559A1, “Compositions Containing, Methods Involving, and Uses of Non-Natural Amino Acid Linked Dolastatin Derivatives” (priority 2011, published 2015)
Read-outs that look alike come from different tables or passages of the source.

Legend:
[1] = system: HT29; test: In vitro inhibition of proliferation assay (WST-8), HT29; assay type: cell-based; conditions: Data Set II, experiment Sep. 24, 2010; 72 hr; read-out: IC50 Values after 72 hr drug treatment, HT29
Experimental: (§1) At day 1, the cells were seeded. The media was aspirated and the T-225 culture flasks of cells was rinsed with 30 mL PBS −/. PBS was aspirated and 6 mL of 0.25% Trypsin-EDTA was added to each flask. The flasks were incubated at 37C, 5% CO2 for 2-5 minutes. Adherent cells were dislodged by hitting flask and trypsin was neutralized by adding 14 mL culture medium. The cell suspension was mixed and transferred to a 50 mL conical tube. The cells were spun down at 1200 rpm, 5 min, room temperature. The resultant cell pellet was resuspended in 12 mL of culture medium. The cells were counted in a hemacytometer. Cells were seeded at appropriate cell densities into 96-well flat-bottom, clear plates and incubated overnight at 37° C., 5% CO2 to allow cells to attach. Plating volume was 80 uL/well. 80 uL/well of culture medium was utilized as the “no cell” control.
(§2) Cell plating density examples include: • BT474 (high Her2)—20,000 cells/well in F12k/DMEM (50/50), 10% FBS, P/S • MDA-MB-468 (Her2 negative)—6,000 cells/well in F12k/DMEM (50/50), 10% FBS, P/S • HCC1954—5,000 cells/well in RPMI 1640, 10% FBS, P/S • SKOV-3—6,000 cells/well in RPMI 1640, 10% FBS, P/S • HT29—20,000 cells/well in McCoy's 5A, 10% FBS, P/S
(§3) At day 2, the test samples were added to the cells. […]
(§4) At day 5, proliferation readout occurred. […] The plates were measured for absorbance at OD 450 nm. […]

[2] = system: LS513; test: In vitro inhibition of proliferation assay (WST-8), LS513; assay type: cell-based; conditions: Data Set I, experiment Sep. 4, 2010; 72 hr; read-out: IC50 Values after 72 hr drug treatment, LS513
Experimental: as §1
(§5) At day 2, the test samples were added to the cells. The test samples were diluted in culture medium to a 9× stock concentration in Column 2 of a round-bottom 96-well plate. 3× serial dilutions were made from Column 2 to Column 11 with a multi-channel pipettor. 10 uL/well of the above samples was added in duplicate to the appropriate wells of the seeded plate. The total volume in the wells was about 90 uL/well. […]
as §4

[3] = system: NCI-N87; test: In vitro inhibition of proliferation assay (WST-8), NCI-N87; assay type: cell-based; conditions: Data Set I, experiment Sep. 4, 2010; 72 hr; read-out: IC50 Values after 72 hr drug treatment, NCI-N87
Experimental: as §1, §5, §4

[4] = system: BT474; test: In vitro inhibition of proliferation assay (WST-8), BT474; assay type: cell-based; conditions: 72 hr, read-out: IC50 Values after 72 hr drug treatment, BT474
Experimental: as §1, §2
(§6) At day 2, the test samples were added to the cells. The test samples were diluted in culture medium to a 9× stock concentration in Column 2 of a round-bottom 96-well plate. 3× serial dilutions were made from Column 2 to Column 11 with a multi-channel pipettor. 10 uL/well of the above samples was added in duplicate to the appropriate wells of the seeded plate. The total volume in the wells was about 90 uL/well. 10 uL/well of culture medium was added to avoid edge effects for sample wells. Media Control wells were included in the inner wells where no sample was added (just 10 uL/well of culture medium) to be used in proliferation calculations. The plates were incubated at 37° C., 5% CO2 for 72 hrs.
as §4

[5] = system: MDA-MB-468; test: In vitro inhibition of proliferation assay (WST-8), MDA-MB-468; assay type: cell-based; conditions: Data Set II, experiment Oct. 8, 2010; 72 hr; read-out: IC50 Values after 72 hr drug treatment, MDA-MB-468
Experimental: as §1, §2, §3, §4

[6] = system: SKOV-3; test: In vitro inhibition of proliferation assay (WST-8), SKOV-3; assay type: cell-based; conditions: 72 hr, read-out: IC50 Values after 72 hr drug treatment, SKOV-3
Experimental: as §1, §2, §6, §4

[7] = system: ZR-75-30; test: In vitro inhibition of proliferation assay (WST-8), ZR-75-30; assay type: cell-based; conditions: Data Set I, experiment Sep. 4, 2010; 72 hr; read-out: IC50 Values after 72 hr drug treatment, ZR-75-30
Experimental: as §1, §5, §4

[8] = system: MDA-MB-175; test: In vitro inhibition of proliferation assay (WST-8), MDA-MB-175; assay type: cell-based; conditions: Data Set I, experiment Sep. 13, 2010
Experimental: as §1, §5, §4

[9] = system: HCC1954; test: In vitro inhibition of proliferation assay (WST-8), HCC1954; assay type: cell-based, human; conditions: 72 hr, read-out: IC50 Values after 72 hr drug treatment, HCC1954
Experimental: as §1, §2, §3, §4

[10] = Data Set I, experiment Sep. 4, 2010
[11] = Data Set I, experiment Sep. 13, 2010
[12] = Data Set II, experiment Oct. 8, 2010

Dolastatin
IC50 [1]: 4 nM
IC50 [2]: 0.2 nM
IC50 [3]: > 30 nM
IC50 [4, 10]: 0.1 nM
IC50 [4, 11]: 0.1 nM
IC50 ([4]; Data Set II, experiment Sep. 24, 2010): 2.5 nM
IC50 [5]: < 0.01 nM
IC50 [6, 10]: 0.2 nM
IC50 [6, 11]: 0.1 nM
IC50 [6, 12]: 0.2 nM
IC50 [7]: > 30 nM
IC50 Values after 72 hr drug treatment, MDA-MB-175 [8]: no fit
IC50 [9, 10]: 0.06 nM
IC50 [9, 12]: 0.04 nM
